Measured values from patent US20230017045A1, “PYRIDINE AND PYRIMIDINE CARBOXYLATE HERBICIDES AND METHODS OF USE THEREOF” (Dow AgroSciences LLC, priority 2017, published 2023).

system: test plant species; experiment: Post-emergent herbicidal activity test (greenhouse, foliar spray, visual growth reduction); format: in vivo; conditions: post-emergence, 336 h, ECHCG: barnyardgrass (Echinochloa crus-galli), 140 g ai/ha, 14 days after application, read-out: Visual Growth Reduction (%) 14 Days After Application, ECHCG
In short: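 Visual scoring 14 d after treatment (0 = no injury, 100 = complete control) against nontreated and solvent-blank plants gave percent growth reduction. Foliar application used a track sprayer delivering 187 L/ha to seedlings at first or second true leaf stage, grown at 23–29 °C day, ~15 h photoperiod.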

SMILES	pest or weed control at 140 g/ha
O=C(O)c1nc(-c2ccc(C(F)(F)F)c(C(F)F)c2F)c(F)cc1Cl [F294, 3-Chloro-6-(3-(difluoromethyl)-2-fluoro-4-(trifluoromethyl)phenyl)-5-fluoropicolinic acid]	60 to 74%
O=C(O)c1nc(-c2cnc(C(F)(F)F)cc2Cl)ccc1Cl [F205, 4′,5-Dichloro-6′-(trifluoromethyl)-[2,3′-bipyridine]-6-carboxylic acid]	45 to 59%

same assay, conditions: post-emergence, 336 h, IPOHE: ivy-leaf morning glory (Ipomoea hederacea), 140 g ai/ha, 14 days after application, read-out: Visual Growth Reduction (%) 14 Days After Application, IPOHE

SMILES	pest or weed control at 140 g/ha
O=C(O)c1nc(-c2ccc(C(F)(F)F)c(C(F)F)c2F)c(F)cc1Cl [F294, 3-Chloro-6-(3-(difluoromethyl)-2-fluoro-4-(trifluoromethyl)phenyl)-5-fluoropicolinic acid]	95 to 100%
O=C(O)c1nc(-c2cnc(C(F)(F)F)cc2Cl)ccc1Cl [F205, 4′,5-Dichloro-6′-(trifluoromethyl)-[2,3′-bipyridine]-6-carboxylic acid]	95 to 100%

same assay, conditions: post-emergence, 336 h, KCHSC: kochia (Bassia scoparia), 140 g ai/ha, 14 days after application, read-out: Visual Growth Reduction (%) 14 Days After Application, KCHSC

SMILES	pest or weed control at 140 g/ha
O=C(O)c1nc(-c2ccc(C(F)(F)F)c(C(F)F)c2F)c(F)cc1Cl [F294, 3-Chloro-6-(3-(difluoromethyl)-2-fluoro-4-(trifluoromethyl)phenyl)-5-fluoropicolinic acid]	75 to 84%
O=C(O)c1nc(-c2cnc(C(F)(F)F)cc2Cl)ccc1Cl [F205, 4′,5-Dichloro-6′-(trifluoromethyl)-[2,3′-bipyridine]-6-carboxylic acid]	0 to 29%

same assay, conditions: post-emergence, 336 h, ORYSA: rice (Oryza sativa), 140 g ai/ha, 14 days after application, read-out: Visual Growth Reduction (%) 14 Days After Application, ORYSA

SMILES	pest or weed control at 140 g/ha
O=C(O)c1nc(-c2ccc(C(F)(F)F)c(C(F)F)c2F)c(F)cc1Cl [F294, 3-Chloro-6-(3-(difluoromethyl)-2-fluoro-4-(trifluoromethyl)phenyl)-5-fluoropicolinic acid]	0 to 29%
O=C(O)c1nc(-c2cnc(C(F)(F)F)cc2Cl)ccc1Cl [F205, 4′,5-Dichloro-6′-(trifluoromethyl)-[2,3′-bipyridine]-6-carboxylic acid]	0 to 29%

same assay, conditions: post-emergence, 336 h, SETFA: giant foxtail (Setaria faberi), 140 g ai/ha, 14 days after application, read-out: Visual Growth Reduction (%) 14 Days After Application, SETFA

SMILES	pest or weed control at 140 g/ha
O=C(O)c1nc(-c2ccc(C(F)(F)F)c(C(F)F)c2F)c(F)cc1Cl [F294, 3-Chloro-6-(3-(difluoromethyl)-2-fluoro-4-(trifluoromethyl)phenyl)-5-fluoropicolinic acid]	85 to 94%
O=C(O)c1nc(-c2cnc(C(F)(F)F)cc2Cl)ccc1Cl [F205, 4′,5-Dichloro-6′-(trifluoromethyl)-[2,3′-bipyridine]-6-carboxylic acid]	75 to 84%

same assay, conditions: post-emergence, 336 h, SORVU: grain sorghum (Sorghum vulgare), 140 g ai/ha, 14 days after application, read-out: Visual Growth Reduction (%) 14 Days After Application, SORVU

SMILES	pest or weed control at 140 g/ha
O=C(O)c1nc(-c2ccc(C(F)(F)F)c(C(F)F)c2F)c(F)cc1Cl [F294, 3-Chloro-6-(3-(difluoromethyl)-2-fluoro-4-(trifluoromethyl)phenyl)-5-fluoropicolinic acid]	95 to 100%
O=C(O)c1nc(-c2cnc(C(F)(F)F)cc2Cl)ccc1Cl [F205, 4′,5-Dichloro-6′-(trifluoromethyl)-[2,3′-bipyridine]-6-carboxylic acid]	75 to 84%

same assay, conditions: post-emergence, 336 h, STEME: common chickweed (Stellaria media), 140 g ai/ha, 14 days after application, read-out: Visual Growth Reduction (%) 14 Days After Application, STEME

SMILES	pest or weed control at 140 g/ha
O=C(O)c1nc(-c2ccc(C(F)(F)F)c(C(F)F)c2F)c(F)cc1Cl [F294, 3-Chloro-6-(3-(difluoromethyl)-2-fluoro-4-(trifluoromethyl)phenyl)-5-fluoropicolinic acid]	0 to 29%
O=C(O)c1nc(-c2cnc(C(F)(F)F)cc2Cl)ccc1Cl [F205, 4′,5-Dichloro-6′-(trifluoromethyl)-[2,3′-bipyridine]-6-carboxylic acid]	0 to 29%

same assay, conditions: post-emergence, 336 h, TRZAS: wheat, spring (Triticum aestivum), 140 g ai/ha, 14 days after application, read-out: Visual Growth Reduction (%) 14 Days After Application, TRZAS

SMILES	pest or weed control at 140 g/ha
O=C(O)c1nc(-c2ccc(C(F)(F)F)c(C(F)F)c2F)c(F)cc1Cl [F294, 3-Chloro-6-(3-(difluoromethyl)-2-fluoro-4-(trifluoromethyl)phenyl)-5-fluoropicolinic acid]	60 to 74%
O=C(O)c1nc(-c2cnc(C(F)(F)F)cc2Cl)ccc1Cl [F205, 4′,5-Dichloro-6′-(trifluoromethyl)-[2,3′-bipyridine]-6-carboxylic acid]	0 to 29%

same assay, conditions: post-emergence, 336 h, blackgrass (Alopecurus myosuroides), 14 Days After Application, 140 g ai/ha, read-out: Visual Growth Reduction (%) ALOMY

SMILES	pest or weed control at 140 g/ha
O=C(O)c1nc(-c2ccc(C(F)(F)F)c(C(F)F)c2F)c(F)cc1Cl [F294, 3-Chloro-6-(3-(difluoromethyl)-2-fluoro-4-(trifluoromethyl)phenyl)-5-fluoropicolinic acid]	75 to 84%
O=C(O)c1nc(-c2cnc(C(F)(F)F)cc2Cl)ccc1Cl [F205, 4′,5-Dichloro-6′-(trifluoromethyl)-[2,3′-bipyridine]-6-carboxylic acid]	0 to 29%

same assay, conditions: post-emergence, 336 h, canada thistle (Cirsium arvense), 14 Days After Application, 140 g ai/ha, read-out: Visual Growth Reduction (%) CIRAR

SMILES	pest or weed control at 140 g/ha
O=C(O)c1nc(-c2ccc(C(F)(F)F)c(C(F)F)c2F)c(F)cc1Cl [F294, 3-Chloro-6-(3-(difluoromethyl)-2-fluoro-4-(trifluoromethyl)phenyl)-5-fluoropicolinic acid]	75 to 84%
O=C(O)c1nc(-c2cnc(C(F)(F)F)cc2Cl)ccc1Cl [F205, 4′,5-Dichloro-6′-(trifluoromethyl)-[2,3′-bipyridine]-6-carboxylic acid]	75 to 84%

same assay, conditions: post-emergence, 336 h, crabgrass (Digitaria sanguinalis), 14 Days After Application, 140 g ai/ha, read-out: Visual Growth Reduction (%) DIGSA

SMILES	pest or weed control at 140 g/ha
O=C(O)c1nc(-c2ccc(C(F)(F)F)c(C(F)F)c2F)c(F)cc1Cl [F294, 3-Chloro-6-(3-(difluoromethyl)-2-fluoro-4-(trifluoromethyl)phenyl)-5-fluoropicolinic acid]	85 to 94%
O=C(O)c1nc(-c2cnc(C(F)(F)F)cc2Cl)ccc1Cl [F205, 4′,5-Dichloro-6′-(trifluoromethyl)-[2,3′-bipyridine]-6-carboxylic acid]	45 to 59%

same assay, conditions: post-emergence, 336 h, lambsquarters (Chenopodium album), 14 Days After Application, 140 g ai/ha, read-out: Visual Growth Reduction (%) CHEAL

SMILES	pest or weed control at 140 g/ha
O=C(O)c1nc(-c2ccc(C(F)(F)F)c(C(F)F)c2F)c(F)cc1Cl [F294, 3-Chloro-6-(3-(difluoromethyl)-2-fluoro-4-(trifluoromethyl)phenyl)-5-fluoropicolinic acid]	85 to 94%
O=C(O)c1nc(-c2cnc(C(F)(F)F)cc2Cl)ccc1Cl [F205, 4′,5-Dichloro-6′-(trifluoromethyl)-[2,3′-bipyridine]-6-carboxylic acid]	75 to 84%

same assay, conditions: post-emergence, 336 h, redroot pigweed (Amaranthus retroflexus), 14 Days After Application, 140 g ai/ha, read-out: Visual Growth Reduction (%) AMARE

SMILES	pest or weed control at 140 g/ha
O=C(O)c1nc(-c2ccc(C(F)(F)F)c(C(F)F)c2F)c(F)cc1Cl [F294, 3-Chloro-6-(3-(difluoromethyl)-2-fluoro-4-(trifluoromethyl)phenyl)-5-fluoropicolinic acid]	95 to 100%
O=C(O)c1nc(-c2cnc(C(F)(F)F)cc2Cl)ccc1Cl [F205, 4′,5-Dichloro-6′-(trifluoromethyl)-[2,3′-bipyridine]-6-carboxylic acid]	30 to 44%

same assay, conditions: post-emergence, 336 h, wild oat (Avena fatua), 14 Days After Application, 140 g ai/ha, read-out: Visual Growth Reduction (%) AVEFA

SMILES	pest or weed control at 140 g/ha
O=C(O)c1nc(-c2ccc(C(F)(F)F)c(C(F)F)c2F)c(F)cc1Cl [F294, 3-Chloro-6-(3-(difluoromethyl)-2-fluoro-4-(trifluoromethyl)phenyl)-5-fluoropicolinic acid]	60 to 74%
O=C(O)c1nc(-c2cnc(C(F)(F)F)cc2Cl)ccc1Cl [F205, 4′,5-Dichloro-6′-(trifluoromethyl)-[2,3′-bipyridine]-6-carboxylic acid]	0 to 29%

same assay, conditions: post-emergence, 336 h, yellow nutsedge (Cyperus esculentus), 14 Days After Application, 140 g ai/ha, read-out: Visual Growth Reduction (%) CYPES

SMILES	pest or weed control at 140 g/ha
O=C(O)c1nc(-c2ccc(C(F)(F)F)c(C(F)F)c2F)c(F)cc1Cl [F294, 3-Chloro-6-(3-(difluoromethyl)-2-fluoro-4-(trifluoromethyl)phenyl)-5-fluoropicolinic acid]	0 to 29%
O=C(O)c1nc(-c2cnc(C(F)(F)F)cc2Cl)ccc1Cl [F205, 4′,5-Dichloro-6′-(trifluoromethyl)-[2,3′-bipyridine]-6-carboxylic acid]	0 to 29%
